# From paper PMC12084297, “Cytoplasmic connexin43-microtubule interactions promote glioblastoma stem-like cell maintenance and tumorigenicity” (Cell Death & Disease, 2025)
# What was measured:
# Format in all cases: cell-based, human
# Notch1 = Notch1 protein expression, immunoblot, VTC-037 GSCs; conditions: 50 μM, 24 h
# Method: Cells were lysed in RIPA buffer (0.1% sodium dodecyl sulphate, 50 mM Tris pH 7.4, 150 mM NaCl, 1 mM EDTA, 1% Triton X-100, 1% deoxycholic acid, 200 μM Na3VO4, and 1 mM NaF) supplemented with Halt^TM Protease and Phosphatase Inhibitor Cocktail (Thermo Fisher). Lysates were sonicated prior to centrifugation at 4 °C for 20 min at 10,000 x g. Protein concentration was quantified using the DC protein assay (Bio-Rad Laboratories) and a standard curve obtained with increasing concentrations of Bovine Serum Albumin (BSA; Fisher Scientific). Protein samples were normalized to 20 μg total protein per lane and resolved by SDS-PAGE electrophoresis. 4X Bolt LDS sample buffer supplemented with 400 mM DTT (final concentration 1X Bolt LDS with 100 mM DTT) was added to samples before heating at 70 °C for 10 min. SDS-PAGE was run using NuPAGE Bis-Tris 4%–12% gradient gels (Thermo Fisher) with MES or MOPS running buffer according to manufacturer’s instructions. Spectra™ Multicolor Protein Ladder (Thermo Fisher) or Precision Plus Protein™ Kaleidoscope™ Prestained Protein Standards (Bio-Rad Laboratories) were included as protein ladders on the same gels. […] Membranes were imaged on a ChemiDoc™ imaging system, and analyzed with Image Lab software (Bio-Rad Laboratories). […]
# VTC-034 GSCs = assay: Limiting dilution analysis (ELDA), VTC-034 GSCs; conditions: VTC-034, 100 μM every other day, 2 weeks; compared to JM2-scrambled or control
# Method: (§1) GSCs and PDX GBM22 cells were plated as single cell suspension in low-attachment 96-well plates (GSCs: 100–500 cells per well; GBM22 cells: 500–2000 cells per well), using methods similar to those reported previously. Cells were then treated with peptides every other day. 2 weeks later, gliospheres were observed using phase contrast microscopy on a Revolve microscope (Echo Laboratories). The number of gliospheres was then determined, while the gliosphere size was assessed by diameter measurement. To evaluate stem cell frequency in GSCs, gliosphere formation assay was performed with limiting cell dilutions with cells plated at varying densities in low-attachment 96-well plates. Cells were treated with peptides every other day, and after 2 weeks, gliosphere-positive wells were observed and scored using phase contrast microscopy on a Revolve microscope. The stem cell frequency was analyzed using the online data analysis program ELDA (Extreme Limiting Dilution Analysis).
# (§2) All quantification was performed on experiments repeated at least three times. Statistical analysis was conducted with GraphPad Prism (GraphPad Software). Data were analyzed for significance using Student’s t test, one-way ANOVA with Tukey’s multiple comparisons test, and presented as mean ± SD. […] Statistical significance between experimental groups was determined using chi-square (χ²) tests within the ELDA framework. […]
# VTC-001 GSCs [1] = assay: Gliosphere formation assay, VTC-001 GSCs; conditions: VTC-001, 10, 50 or 100 μM every other day, 2 weeks
# Method: as §1
# VTC-001 GSCs [2] = assay: Limiting dilution analysis (ELDA), VTC-001 GSCs; conditions: VTC-001, 100 μM every other day, 2 weeks; compared to JM2-scrambled or control
# Method: as §1, §2
# VTC-001 GSCs [3] = assay: MTS viability, VTC-001 GSCs; conditions: 4 days
# Method: Cells were plated in 96-well plates (2000–5000 cells per well) and treated the following day with TMZ (10, 50, or 100 μM), antennapedia, JM2-scrambled, or JM2 (10, 50, or 100 μM). After 4 days, cell viability was monitored following addition of MTS reagent (Promega) according to manufacturer’s instructions. The absorbance at 490 nm was measured using a SpectraMax i3 or iD3 microplate reader (Molecular Devices). For the caspase 3/7 activity assay, cells were plated in 96-well plates (2000 cells per well) and treated with TMZ or peptides as described above. The activity of caspase 3/7 was measured after 48 h using the Caspase-Glo® 3/7 assay (Promega) following the manufacturer’s instructions. Fold change of caspase 3/7 activity was defined as the ratio of caspase 3/7 luminescence in treated cells compared to controls.
sequence,measurement,setting,value
VFFKGVKDRVKGRSD [JM2],Notch1 protein expression,Notch1,significantly decreased Notch1 expression at the protein level
same,GSC frequency / self-renewal (limiting dilution),VTC-034 GSCs,"significant decrease in VTC-001, VTC-034, and VTC-037 GSC frequency"
same,GSC-dependent gliosphere formation,VTC-001 GSCs [1],"inhibits VTC-001, VTC-034, and VTC-037 GSC-dependent gliosphere formation in a dose-dependent manner"
same,Gliosphere size (diameter),VTC-001 GSCs [1]; n = 4,significant decrease in gliosphere size
same,Gliosphere number,VTC-001 GSCs [1]; n = 6,"significant decrease in gliosphere size as assessed by diameter measurement (Fig. 6B), and number"
same,GSC frequency / self-renewal (limiting dilution),VTC-001 GSCs [2],"significant decrease in VTC-001, VTC-034, and VTC-037 GSC frequency"
same,GSC viability with JM2 alone in combination experiment (MTS),"VTC-001 GSCs [3]; VTC-001 adherent GSCs, 100 μM",significantly decreased GSC viability
same,GSC survival (MTS),"VTC-001 GSCs [3]; VTC-001 adherent GSCs, 10, 50 or 100 μM","significantly decreased VTC-001, VTC-034, and VTC-037 GSC survival when cultured as adherent cells in a dose-dependent manner"
